The text below walks through data of PMC4520264 (Organic & biomolecular chemistry, 2015).

What all share (format): binding
For assay [1], the target named is R1 (scFv fluorescence-activating protein, FAP). Briefly: fluorescence ligand depletion titration with […] R1. As to conditions: read-out: TO.
Assay [2] addresses HL1.0.1-TO1 (scFv fluorescence-activating protein, FAP). Kind of assay: fluorescence ligand depletion titration with […] FAP. As to conditions: read-out: TO1-2p.
Assay [3] concerns the target R1 (scFv fluorescence-activating protein, FAP). Kind of assay: fluorescence. As to conditions: read-out: Coumarin-TO.
In assay [4] the target is HL1.0.1-TO1 (scFv fluorescence-activating protein, FAP). Briefly: fluorescence. Conditions: read-out: TO1-2p-Cy5.

For `CN1/C(=C/c2cc[n+](C)c3ccccc23)Sc2ccccc21` [TO], in assay [1], the Kd amounted to 0.17 nM.
As for TO1-2p, the Kd in assay [2] was 0.3 nM.
Consider coumarin-TO, for which the Kd in assay [3] is 1.1 nM.
On to TO1-2p-Cy5, for which the Kd in assay [4] was 12 nM.
